# According to patent US20140142333A1, “NOVEL ANILINE DERIVATIVES AND USE THEREOF” (NEOMICS Co, Ltd., priority 2011, published 2014):
# How the values were obtained:
# AIMP2-DX2 [1] = target: T1, AIMP2-DX2 (Homo sapiens, UniProt Q13155); test: luciferase assay of pGL-DX-2 transfected A549 cells; conditions: luciferase activity 4 hours after compound treatment; N.C (DMSO) 20089; lower = inhibition
# T1 sequence (Q13155 1-251 isoform Q13155-2): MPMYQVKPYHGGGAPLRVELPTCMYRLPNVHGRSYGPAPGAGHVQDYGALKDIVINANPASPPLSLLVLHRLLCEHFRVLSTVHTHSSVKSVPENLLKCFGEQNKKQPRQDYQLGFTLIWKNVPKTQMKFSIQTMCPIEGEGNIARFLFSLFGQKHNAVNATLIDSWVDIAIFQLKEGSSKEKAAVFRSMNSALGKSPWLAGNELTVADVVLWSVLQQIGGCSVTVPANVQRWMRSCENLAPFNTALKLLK
# AIMP2-DX2 [2] = target: T1, AIMP2-DX2; test: luciferase assay of pGL-DX-2 transfected H460 cells; conditions: luciferase activity 4 hours after compound treatment; N.C (DMSO) 8627; lower = inhibition
# Procedure: In order to screen for a compound specifically inhibiting the activity of AIMP2-DX2, from a compound library bought from ChemDive (US), the inventors' transfected lung cancer cell line, H460, with pGL2-DX2 (see FIG. 2). After culturing the cell line for 24 hours, they treated it with a compound. Then, after further culturing for 4 hours, luciferase activity was measured through a luciferase assay kit according to a manufacturer protocol (Promega, US), by using a luminometer.
# After further culturing for 4 hours, luciferase activity was measured.
Compound,AIMP2-DX2 activity in A549 cells (AIMP2-DX2 [1]),AIMP2-DX2 activity in H460 cells (AIMP2-DX2 [2])
"CCCCc1ccc(NC(=O)/C=C\C(=O)O)cc1 [compound 10, (Z)-4-[(4-butylphenyl)amino]-4-oxobut-2-enoic acid]",12399,8045
"Cc1cc(Cl)cc(Cl)c1NC(=O)/C=C\C(=O)O [compound 14, (Z)-4-[(2,4-dichloro-6-methylphenyl)amino]-4-oxobut-2-enoic acid]",240,230
"Cc1ccc(NC(=O)/C=C/C(=O)Nc2ccc(C)c(C)c2)cc1C [compound 1, N1,N4-bis(3,4-dimethylphenyl)fumaramide]",14179,7101
"Cc1cc(F)ccc1NC(=O)/C=C\C(=O)Nc1ccc(F)cc1C [compound 27, N1,N4-bis(4-fluoro-2-methylphenyl)maleamide]",5586,6029
"Cc1cccc(NC(=O)/C=C\C(=O)Nc2cccc(C)c2)c1 [compound 4, N1,N4-di-m-tolylmaleamide]",9605,8189
"Cc1ccc(NC(=O)/C=C\C(=O)Nc2ccc(Br)cc2)cc1C [compound 17, N1-(4-bromophenyl)-N4-(3,4-dimethylphenyl)maleamide]",6975,5718
"O=C(/C=C/C(=O)Nc1ccc(Br)cc1)Nc1ccc(Br)cc1 [compound 22, N1,N4-bis(4-bromophenyl) fumaramide]",5647,6377
"Cc1ccc(NC(=O)/C=C\C(=O)Nc2ccc(F)cc2)cc1F [compound 26, N1-(3-fluoro-4-methylphenyl)-N4-(4-fluorophenyl)maleamide]",6525,6428
"CCc1cccc(NC(=O)/C=C\C(=O)Nc2ccc(F)cc2)c1 [compound 19, N1-(3-ethylphenyl)-N4-(4-fluorophenyl)maleamide]",3978,3715
"O=C(/C=C/C(=O)Nc1ccc(Cl)c(Cl)c1)Nc1ccc(Cl)c(Cl)c1 [compound 23, N1,N4-bis(3,4-dichlorophenyl)fumaramide]",5352,6391
"CCOC(=O)CC(=O)Nc1ccc(O)cc1Cl [compound 32, ethyl 3-[(2-chloro-4-hydroxyphenyl)amino]-3-oxopropanoate]",19889,4848
"Cc1cccc(NC(=O)/C=C/C(=O)Nc2cccc(C)c2)c1 [compound 2, N1,N4-di-m-tolylfumaramide]",14072,7292
"Cc1cc(C)cc(NC(=O)/C=C\C(=O)O)c1 [compound 9, (Z)-4-[(3,5-dimethylphenyl)amino]-4-oxobut-2-enoic acid]",6786,7064
"Cc1ccc(C)c(NC(=O)/C=C\C(=O)Nc2ccc(C)c(C)c2)c1 [compound 3, N1-(2,5-dimethylphenyl)-N4-(3,4-dimethylphenyl)maleamide]",10043,7749
"COc1cccc(NC(=O)C(C)C(=O)Nc2cc(C)ccc2C)c1 (stereo not drawn) [compound 28, N1-(2,5-dimethylphenyl)-N3-(3-methoxyphenyl)-2-methylmalonamide]",6691,7722
"Cc1ccc(NC(=O)/C=C\C(=O)Nc2cc(Cl)cc(Cl)c2)cc1C [compound 7, N1-(3,5-dichlorophenyl)-N4-(3,4-dimethylphenyl)maleamide]",8268,5019
"COc1ccc(NC(=O)/C=C\C(=O)Nc2ccc(OC)cc2)cc1 [compound 25, N1,N4-bis(4-methoxyphenyl) maleamide]",5152,6085

Compound,AIMP2-DX2 activity in A549 cells (AIMP2-DX2 [1]),AIMP2-DX2 activity in H460 cells (AIMP2-DX2 [2])
"CCCCc1cccc(NC(=O)/C=C\C(=O)Nc2ccc(C)c(C)c2)c1 [compound 16, N1-(3-butylphenyl)-N4-(3,4-dimethylphenyl)maleamide]",6871,7511
"Cc1cc(C)cc(NC(=O)/C=C\C(=O)Nc2ccc(C)c(C)c2)c1 [compound 15, N1-(3,4-dimethylphenyl)-N4-(3,5-dimethylphenyl)maleamide]",6981,8621
"COc1cccc(NC(=O)/C=C\C(=O)Nc2ccc(F)cc2)c1 [compound 18, N1-(4-fluorophenyl)-N4-(3-methoxyphenyl)maleamide]",4239,3246
"Cc1ccc(NC(=O)/C=C/C(=O)Nc2ccc(C)c(F)c2)cc1F [compound 24, N1,N4-bis(3-fluoro-4-methylphenyl)fumaramide]",5812,7094
"CCOC(=O)C(C)C(=O)Nc1ccc(O)cc1Cl (stereo not drawn) [compound 33, ethyl 3-[(2-chloro-4-hydroxyphenyl)amino]-2-methyl-3-oxopropanoate]",18631,5403
"O=C(O)/C=C\C(=O)Nc1cc(Cl)cc(Cl)c1 [compound 13, (Z)-4-[(3,5-dichlorophenyl)amino]-4-oxobut-2-enoic acid]",8049,7855
"Cc1ccc(NC(=O)/C=C\C(=O)Nc2ccc(F)cc2C)cc1C [compound 5, N1-(3,4-dimethylphenyl)-N4-(4-fluoro-2-methylphenyl)maleamide]",9643,7427
"Cc1ccc(NC(=O)/C=C\C(=O)Nc2ccc(C)c(F)c2)cc1C [compound 6, N1-(3,4-dimethylphenyl)-N4-(3-fluoro-4-methylphenyl)maleamide]",10551,8901
"Cc1cccc(NC(=O)/C=C\C(=O)O)c1 [compound 11, (Z)-4-oxo-4-(m-tolylamino) but-2-enoic acid]",6328,7143
"O=C(/C=C/C(=O)Nc1cc(Cl)cc(Cl)c1)Nc1cc(Cl)cc(Cl)c1 [compound 21, N1,N4-bis(3,5-dichlorophenyl)fumaramide]",7285,6061
"CCOC(=O)C(C)C(=O)Nc1ccc2cc3ccccc3cc2c1 (stereo not drawn) [compound 31, ethyl 3-(anthracen-2-ylamino)-2-methyl-3-oxopropanoate]",5771,6346
"O=C(O)/C=C\C(=O)Nc1ccc(F)cc1 [compound 12, (Z)-4-[(4-fluorophenyl)amino]-4-oxobut-2-enoic acid]",7937,7031
"Cc1cccc(NC(=O)/C=C\C(=O)Nc2ccc(F)cc2)c1 [compound 29, N1-(4-fluorophenyl)-N4-(m-tolyl)maleamide]",5662,5916
"COc1cccc(NC(=O)C(C)C(=O)Nc2cc(C)cc(C)c2)c1 (stereo not drawn) [compound 30, N1-(3,5-dimethylphenyl)-N3-(3-methoxyphenyl)-2-methylmalonamide]",7291,7167
"Cc1ccc(NC(=O)/C=C\C(=O)O)cc1F [compound 20, (Z)-4-[(3-fluoro-4-methylphenyl)amino]-4-oxobut-2-enoic acid]",6446,7639
"Cc1ccc(C)c(NC(=O)/C=C\C(=O)O)c1 [compound 8, (Z)-4-[(2,5-dimethylphenyl)amino]-4-oxobut-2-enoic acid]",6705,7648
